Test results as given in patent publication US20220267331A1, “DOPAMINE-B-HYDROXYLASE INHIBITORS” (BIAL - PORTELA & CA, S.A., priority 2019, published 2022).
pIC50: −log10 of the molar value. Blank lines part the entries; values can stand above or below the compound they belong to.

Biological target: T1, DβH (Homo sapiens, UniProt P09172)
T1 construct: 125 μL of plasma (or saline for blank reaction or standard curve); tissue Instituto Português do Sangue Transplantação, Centro Sangue Transplantação, Porto, Portugal; host or cells: human plasma from healthy donors
T1 sequence (P09172 40-617 limits assumed): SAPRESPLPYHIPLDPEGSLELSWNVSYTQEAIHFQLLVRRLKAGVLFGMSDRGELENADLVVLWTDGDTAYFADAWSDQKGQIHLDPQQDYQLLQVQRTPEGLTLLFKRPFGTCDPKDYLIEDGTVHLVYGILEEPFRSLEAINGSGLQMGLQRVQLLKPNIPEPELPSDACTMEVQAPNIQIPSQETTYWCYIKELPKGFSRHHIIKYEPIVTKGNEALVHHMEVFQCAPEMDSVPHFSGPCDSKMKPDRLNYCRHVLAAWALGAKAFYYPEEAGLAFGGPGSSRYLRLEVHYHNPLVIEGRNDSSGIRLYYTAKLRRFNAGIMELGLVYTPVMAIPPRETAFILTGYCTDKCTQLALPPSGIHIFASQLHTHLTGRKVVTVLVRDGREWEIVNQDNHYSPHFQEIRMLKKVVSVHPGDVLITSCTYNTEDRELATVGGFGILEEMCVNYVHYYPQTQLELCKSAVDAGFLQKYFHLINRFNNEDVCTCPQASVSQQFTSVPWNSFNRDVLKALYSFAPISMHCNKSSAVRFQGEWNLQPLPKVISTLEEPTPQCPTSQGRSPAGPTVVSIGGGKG
Assay: Dopamine-β-hydroxylase inhibition assay in human plasma
Type: biochemical
Conditions: for remaining activity at 0.01 µM: DβH activity in human plasma at 0.01 μM inhibitor; for remaining activity at 0.1 µM: DβH activity in human plasma at 0.1 μM inhibitor; for pIC50: human plasma, curve fitting of 6 concentrations (100 nM to 0.3 nM)
Description: The ability of a compound to inhibit DβH activity may be assessed in human plasma using the following assay.
Dopamine beta hydroxylase activity in human plasma was measured by the method of Nagatsu and Udenfriend (Nagatsu, T. and Udenfriend, S. “Photometric assay of dopamine-p-hydroxylase activity in human blood.” Clin. Chem. 18(9) 980-983, 1972) with minor modifications. Catalase, N-ethylmaleimide, tyramine, disodium fumarate, pargyline, sodium acetate, ascorbic acid, copper sulfate and octopamine were obtained from Sigma Chemical Co., St. Louis, Mo. 63178. Human plasma samples were obtained from healthy donors (Instituto Português do Sangue Transplantação, Centro Sangue Transplantação, Porto, Portugal). From date of collection, plasma was stored at −80° C. until use. Test compounds were initially prepared in dimethyl sulfoxide at a concentration of 10 mM and diluted in dimethyl sulfoxide to the required concentrations. Test compounds were further diluted in ultrapure water to a concentration 20-fold to that of the final concentration to be tested. Final concentrations of test compounds were 10 and 100 nM. The various reagents used to make up the incubation buffer were premixed and consisted of the following components: sodium acetate buffer (1 M, pH 5.0, 18 mL), sodium fumarate (0.2 M, 4.5 mL), ascorbic acid (0.2 M, 4.5 ml, freshly prepared), pargyline (20 mM, freshly prepared, 4.5 mL), N-ethylmaleimide (0.2 M, 4.5 mL), catalase (10 000 U/mL, 9 mL), copper sulfate (20 μM, 4.5 mL) and 4.5 ultrapure water. The standard incubation mixture (total volume, 950 μL) contained: 50 μL of compound or vehicle (dimethyl sulfoxide 2%); 700 μL of incubation buffer; 125 μL of plasma (or saline for blank reaction or standard curve); 75 μL of saline. The reaction mixture was placed in water bath, shaking at 37° C. and pre-incubated for 10 minutes. Tyramine (0.5 M) was added and incubation proceeded for 45 minutes. The reaction contents were exposed to air. A sample of enzyme preparation (with 125 μL of plasma) that had been added perchloric acid 2 M at the end of the pre-incubation period was used as blank. A blank for each of the tested compounds was used. For octopamine standard curve, perchloric acid 2 M was replaced by increasing concentrations of octopamine prepared in perchloric acid 2 M (0.5, 1, 2.5, 5, 7.5, 10, 15, 20 μg/mL, final concentration). The incubation was stopped by adding 200 μL of 2 M molar perchloric acid, and the mixture was centrifuged at 9000 g for 5 min. The supernatant fluid (800 μL) was transferred to a column (SPE cartridge ISOLUTE SCX-3, 100 mg) and centrifuged at 150 g for 2 min. The column was washed two more times with 0.5 ml of ultrapure water by centrifuging at 150 g for 2 min. The adsorbed octopamine was eluted twice with 0.3 mL of 4 M ammonium hydroxide by centrifuging at 150 g for 2 min. Octopamine in the eluate was then converted to p-hydroxybenzaldehyde by adding 200 μL of sodium periodate (2%) and incubating for 6 min. Excess periodate was than reduced by adding 200 μL of sodium metabisulfite (10%). Absorbance was measured at […] in a 96-well plate by use of a SpectraMAX plus 384 (Molecular Devices) with software SOFTmax® PRO Software 5.3 spectrophotometer. Absorbance was linear with octopamine concentration from 0.5 to 20 μg/mL. Dopamine beta hydroxylase activity is determined as nmol of octopamine formed/mL of plasma/hour and effect of compounds is presented as % control. Results are reported in the table below as activity in % of control at the inhibitor concentration tested.
IC50 values of selected compounds were calculated based on curve fitting of results of 6 different compound concentrations (100 nM to 0.3 nM). IC50 data are reported in nM concentration.

SMILES: Fc1ccc(Cl)cc1[C@]12C[C@H]1c1c(CCCNC3CCOCC3)[nH]c(=S)n1C2 [Example 17, (5aS,6aR)-5a-(5-chloro-2-fluorophenyl)-1-(3-((tetrahydro-2H-pyran-4-yl)amino)propyl)-5,5a,6,6a-tetrahydrocyclopropa[3,4]pyrrolo[1,2-c]imidazole-3(2H)-thione]
remaining activity at 0.01 µM: 41.8% | remaining activity at 0.1 µM: 3.9% | pIC50: 8.00

SMILES: Fc1ccc(Cl)c(F)c1[C@]12C[C@H]1c1c(CCCNC3CCOCC3)[nH]c(=S)n1C2 [Example 18, (5aS,6aR)-5a-(3-chloro-2,6-difluorophenyl)-1-(3-((tetrahydro-2H-pyran-4-yl)amino)propyl)-5,5a,6,6a-tetrahydrocyclopropa[3,4]pyrrolo[1,2-c]imidazole-3(2H)-thione]
remaining activity at 0.01 µM: 20.1% | remaining activity at 0.1 µM: 1% | pIC50: 8.40

SMILES: Fc1ccc(Cl)c(F)c1[C@]12C[C@H]1c1c(CCCN3CCCC3)[nH]c(=S)n1C2 [Example 19, (5aS,6aR)-5a-(3-chloro-2,6-difluorophenyl)-1-(3-(pyrrolidin-1-yl)propyl)-5,5a,6,6a-tetrahydrocyclopropa[3,4]pyrrolo[1,2-c]imidazole-3(2H)-thione]
remaining activity at 0.01 µM: 17% | remaining activity at 0.1 µM: 1% | pIC50: 8.52

SMILES: Fc1ccc(Cl)cc1[C@]12C[C@H]1c1c(CCCN3CCCC3)[nH]c(=S)n1C2 [Example 20, (5aS,6aR)-5a-(5-chloro-2-fluorophenyl)-1-(3-(pyrrolidin-1-yl)propyl)-5,5a,6,6a-tetrahydrocyclopropa[3,4]pyrrolo[1,2-c]imidazole-3(2H)-thione]
remaining activity at 0.01 µM: 53.4% | remaining activity at 0.1 µM: 9.1% | pIC50: 8.01

Second part, the compound after the results:

remaining activity at 0.01 µM: 45.3% | remaining activity at 0.1 µM: 8.5%
SMILES: Fc1ccc(Cl)cc1[C@]12C[C@H]1c1c(CCCN[C@H]3CCCOC3)[nH]c(=S)n1C2 [Example 21, (5aS,6aR)-5a-(5-chloro-2-fluorophenyl)-1-(3-(((S)-tetrahydro-2H-pyran-3-yl)amino)propyl)-5,5a,6,6a-tetrahydrocyclopropa[3,4]pyrrolo[1,2-c]imidazole-3(2H)-thione]

remaining activity at 0.01 µM: 23.5% | remaining activity at 0.1 µM: 3.5% | pIC50: 8.40
SMILES: Fc1ccc(Cl)c(F)c1[C@]12C[C@H]1c1c(CCCN[C@H]3CCCOC3)[nH]c(=S)n1C2 [Example 22, (5aS,6aR)-5a-(3-chloro-2,6-difluorophenyl)-1-(3-(((S)-tetrahydro-2H-pyran-3-yl)amino)propyl)-5,5a,6,6a-tetrahydrocyclopropa[3,4]pyrrolo[1,2-c]imidazole-3(2H)-thione]
